Laboratory results as given in patent publication US12110276B2 (Genentech, Inc., priority 2021, dated 2024).

Key:
TEAD2 = TEAD2 (Homo sapiens (Human), UniProt Q15562);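 also: TR-FRET competition assay with His-tagged TEAD protein and a biotinylated lipid pocket probe, compound pre-incubated 30 min or 4 h at room temperature, displacement lowers signal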
TEAD1 = TEAD1 (Homo sapiens (Human), UniProt P28347); assay: TR-FRET lipid pocket probe competition assay (Lipid HTRF), TEAD1; assay type: binding; details: 4 hours pre-incubation; read-out: Lipid HTRF TEAD1 IC50;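 also: His-tagged TEAD1 with biotinylated probe, detected via Europium anti-His and XL665 streptavidin, probe displacement lowers TR-FRET signal, IC50 from four-parameter nonlinear fit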
TEAD3 = TEAD3 (Homo sapiens (Human), UniProt Q99594); assay: TR-FRET lipid pocket probe competition assay (Lipid HTRF), TEAD3; assay type: binding; details: 4 hours pre-incubation; read-out: Lipid HTRF TEAD3 IC50
Experimental: (§1) His-tagged TEAD proteins are pre-incubated with TEAD project compounds for 30 minutes or 4 hours at room temperature. Biotinylated lipid pocket probes are then added to the TEAD/Compound mixture and incubated for 60 minutes at room temperature. The lipid pocket probe competes with the test compound for the TEAD lipid pocket until equilibrium is reached. After 60 minutes, Europium labelled anti-His (Perkin Elmer #AD0110) and XL665 labelled streptavidin (CIS Bio 610SAXAC) are added to the TEAD/test compound/lipid pocket mixture and incubated for 30 minutes or 4 hours. […] If a TEAD lipid pocket binder such as binds and displaces the lipid pocket probe, the disruption of the TEAD:probe interaction results in a decrease in TR-FRET signal. The potency of compounds as TEAD lipid pocket binders is determined by IC50 value generated using a non-linear 4 parameter curve fit.

TEAD4 = TEAD4 (Homo sapiens (Human), UniProt Q15561); assay: TR-FRET lipid pocket probe competition assay (Lipid HTRF), TEAD4; assay type: binding; details: 4 hours pre-incubation; read-out: Lipid HTRF TEAD4 IC50;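 also: His-tagged TEAD4 with biotinylated lipid-pocket probe, read by Europium anti-His and XL665 streptavidin, where probe displacement lowers the TR-FRET signal, IC50 from a four-parameter fit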
Sequence of TEAD4 (Q15561 whole entry, species assumed): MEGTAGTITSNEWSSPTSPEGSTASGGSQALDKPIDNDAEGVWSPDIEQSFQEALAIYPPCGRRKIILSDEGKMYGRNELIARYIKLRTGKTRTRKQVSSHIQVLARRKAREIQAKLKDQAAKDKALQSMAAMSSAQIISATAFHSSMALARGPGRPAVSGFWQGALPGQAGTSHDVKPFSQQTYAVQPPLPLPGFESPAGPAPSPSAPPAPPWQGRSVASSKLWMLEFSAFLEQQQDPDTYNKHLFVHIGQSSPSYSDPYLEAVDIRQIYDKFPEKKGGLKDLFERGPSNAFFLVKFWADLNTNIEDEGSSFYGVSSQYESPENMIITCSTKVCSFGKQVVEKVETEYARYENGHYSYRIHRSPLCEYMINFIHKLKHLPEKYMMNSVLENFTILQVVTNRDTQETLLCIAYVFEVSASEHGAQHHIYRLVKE
Experimental: as §1

Sequence of TEAD2 (Q15562 whole entry, species assumed): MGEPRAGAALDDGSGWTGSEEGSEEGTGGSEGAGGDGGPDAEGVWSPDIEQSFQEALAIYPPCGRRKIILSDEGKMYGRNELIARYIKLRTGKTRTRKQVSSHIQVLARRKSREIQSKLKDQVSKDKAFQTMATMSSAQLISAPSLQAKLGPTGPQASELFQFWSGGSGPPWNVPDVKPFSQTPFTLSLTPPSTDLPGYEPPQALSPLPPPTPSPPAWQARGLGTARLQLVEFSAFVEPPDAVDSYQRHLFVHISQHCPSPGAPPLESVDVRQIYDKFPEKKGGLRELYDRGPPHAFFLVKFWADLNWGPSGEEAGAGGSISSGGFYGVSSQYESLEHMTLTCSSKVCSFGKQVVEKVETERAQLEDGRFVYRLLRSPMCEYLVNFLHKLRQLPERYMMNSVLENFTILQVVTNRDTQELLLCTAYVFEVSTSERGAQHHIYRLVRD
Sequence of TEAD3 (Q99594 whole entry, species assumed): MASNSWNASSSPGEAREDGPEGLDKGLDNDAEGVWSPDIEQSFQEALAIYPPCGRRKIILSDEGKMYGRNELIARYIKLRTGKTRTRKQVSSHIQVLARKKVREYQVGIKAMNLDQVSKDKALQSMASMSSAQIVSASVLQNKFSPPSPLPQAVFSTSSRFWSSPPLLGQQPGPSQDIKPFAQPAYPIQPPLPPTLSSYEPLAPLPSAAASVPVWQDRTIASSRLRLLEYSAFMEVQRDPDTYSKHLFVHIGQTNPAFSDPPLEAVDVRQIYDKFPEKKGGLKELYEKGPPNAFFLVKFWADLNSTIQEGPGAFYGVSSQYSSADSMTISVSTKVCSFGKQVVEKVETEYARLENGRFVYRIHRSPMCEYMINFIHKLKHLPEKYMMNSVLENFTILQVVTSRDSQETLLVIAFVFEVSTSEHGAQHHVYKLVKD
Sequence of TEAD1 (P28347 whole entry, species assumed): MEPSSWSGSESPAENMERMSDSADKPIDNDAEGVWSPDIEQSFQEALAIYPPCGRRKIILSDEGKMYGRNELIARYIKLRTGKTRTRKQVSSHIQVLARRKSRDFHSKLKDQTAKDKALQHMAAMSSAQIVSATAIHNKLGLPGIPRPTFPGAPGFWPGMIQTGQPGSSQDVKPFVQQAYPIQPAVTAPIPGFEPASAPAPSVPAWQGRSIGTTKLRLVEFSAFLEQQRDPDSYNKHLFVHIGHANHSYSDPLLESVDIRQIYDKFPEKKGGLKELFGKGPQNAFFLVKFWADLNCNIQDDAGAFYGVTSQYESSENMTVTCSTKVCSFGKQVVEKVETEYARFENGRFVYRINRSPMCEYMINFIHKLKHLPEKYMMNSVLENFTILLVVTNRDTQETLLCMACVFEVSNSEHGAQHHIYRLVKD

IC50 (TEAD2) | IC50 (TEAD1) | IC50 (TEAD3) | IC50 (TEAD4) | Compound
50 µM | 0.084 µM | 0.14 µM | 0.033 µM | C=CC(=O)NCc1nn(-c2ccc(S(F)(F)(F)(F)F)cc2)c2cccc(C#N)c12 [Compound 14, N-((4-cyano-1-(4-(pentafluoro-λ^6-sulfanyl)phenyl)-1H-indazol-3-yl)methyl)acrylamide]
0.066 µM | 0.0068 µM | 0.1 µM | 0.0034 µM | C=CC(=O)N(C)Cc1nn(-c2ccc(OC(F)(F)F)cc2)c2ccccc12 [Compound 18, N-methyl-N-((1-(4-(trifluoromethoxy)phenyl)-1H-indazol-3-yl)methyl)acrylamide]
0.0072 µM | 0.0215 µM | 0.0385 µM | 0.013 µM | C=C(F)C(=O)N1CC(c2nn(-c3ccc(OC(F)(F)F)cc3)c3nccc([C@@H](O)CO)c23)C1 [Compound 21, 1-[3-[4-[(1R)-1,2-dihydroxyethyl]-1-[4-(trifluoromethoxy)phenyl]pyrazolo[3,4-b]pyridin-3-yl]azetidin-1-yl]-2-fluoro-prop-2-en-1-one]
0.13 µM | 0.0185 µM | 0.405 µM | 0.0455 µM | C=CC(=O)NCc1nn(-c2ccc(OC(F)(F)F)cc2)c2nccc(NC(=O)CO)c12 [Compound 24, N-((4-(2-Hydroxyacetamido)-1-(4-(trifluoromethoxy)phenyl)-1H-pyrazolo[3,4-b]pyridin-3-yl)methyl)acrylamide]
6 µM | 0.96 µM | 3.7 µM | 0.095 µM | C=CC(=O)NCc1nn(-c2ccc(OC(F)(F)F)cc2)c2nccc(C(=O)NCCO)c12 [Compound 25, 3-(Acrylamidomethyl)-N-(2-hydroxyethyl)-1-(4-(trifluoromethoxy)phenyl)-1H-pyrazolo[3,4-b]pyridine-4-carboxamide]
0.16 µM | 0.14 µM | 50 µM | 0.014 µM | O=C(/C=C\Cl)NCc1nn(-c2ccc(OC(F)(F)F)cc2)c2nccc([C@@H](O)CO)c12 [Compound 26, (R,Z)-3-chloro-N-((4-(1,2-dihydroxyethyl)-1-(4-(trifluoromethoxy)phenyl)-1H-pyrazolo[3,4-b]pyridin-3-yl)methyl)acrylamide]
0.22 µM | 0.023 µM | 5.7 µM | 0.033 µM | C=C(F)C(=O)N1CC(c2nn(-c3ccc(OC(F)(F)F)cc3)c3nccc(-c4cnn(CCO)c4)c23)C1 [Compound 28, 2-Fluoro-1-(3-(4-(1-(2-hydroxyethyl)-1H-pyrazol-4-yl)-1-(4-(trifluoromethoxy)phenyl)-1H-pyrazolo[3,4-b]pyridin-3-yl)azetidin-1-yl)prop-2-en-1-one]
1.5 µM | 0.49 µM | 2.6 µM | 0.18 µM | C=CC(=O)NCc1nn(-c2ccc(OC(F)(F)F)cc2)c2nccc(C(=O)NC)c12 [Compound 30, 3-(Acrylamidomethyl)-N-methyl-1-(4-(trifluoromethoxy)phenyl)-1H-pyrazolo[3,4-b]pyridine-4-carboxamide]
0.032 µM | 0.035 µM | 0.062 µM | 0.0255 µM | C=C(F)C(=O)N1CC(c2nn(-c3ccc(OC(F)(F)F)cc3)c3nccc([C@H](O)CO)c23)C1 [Compound 31, (S)-1-(3-(4-(1,2-dihydroxyethyl)-1-(4-(trifluoromethoxy)phenyl)-1H-pyrazolo[3,4-b]pyridin-3-yl)azetidin-1-yl)-2-fluoroprop-2-en-1-one]
0.057 µM | 0.013 µM | 0.22 µM | 0.025 µM | C=CC(=O)NCc1nn(-c2ccc(OC(F)(F)F)cc2)c2nccc(CO)c12 [Compound 32, N-((4-(Hydroxymethyl)-1-(4-(trifluoromethoxy)phenyl)-1H-pyrazolo[3,4-b]pyridin-3-yl)methyl)acrylamide]
0.17 µM | 0.017 µM | 0.64 µM | 0.014 µM | C=CC(=O)NCc1nn(-c2ccc(OC(F)(F)F)cc2)c2nccc(-c3cnn(CCO)c3)c12 [Compound 35, N-((4-(1-(2-Hydroxyethyl)-1H-pyrazol-4-yl)-1-(4-(trifluoromethoxy)phenyl)-1H-pyrazolo[3,4-b]pyridin-3-yl)methyl)acrylamide]
0.12 µM | 0.0092 µM | 0.5 µM | 0.0058 µM | C=CC(=O)NCc1nn(-c2ccc(OC(F)(F)F)cc2)c2nccc(NCCO)c12 [Compound 36, N-((4-((2-Hydroxyethyl)amino)-1-(4-(trifluoromethoxy)phenyl)-1H-pyrazolo[3,4-b]pyridin-3-yl)methyl)acrylamide]
0.014 µM | 0.0069 µM | 0.033 µM | 0.0032 µM | O=C(/C=C/Cl)NCc1nn(-c2ccc(OC(F)(F)F)cc2)c2nccc(CO)c12 [Compound 37, (E)-3-Chloro-N-((4-(hydroxymethyl)-1-(4-(trifluoromethoxy)phenyl)-1H-pyrazolo[3,4-b]pyridin-3-yl)methyl)acrylamide]
0.1 µM | 0.18 µM | 50 µM | 0.039 µM | C=CC(=O)NCc1nn(-c2ccc(OC(F)(F)F)cc2)c2nccc([C@H]3C[C@@H](O)C3)c12 [Compound 38, N-((4-(cis-3-Hydroxycyclobutyl)-1-(4-(trifluoromethoxy)phenyl)-1H-pyrazolo[3,4-b]pyridin-3-yl)methyl)acrylamide]
0.019 µM | 0.042 µM | 0.84 µM | 0.0054 µM | C=C(F)C(=O)N1CC(c2nn(-c3ccc(OC(F)(F)F)cc3)c3nccc(N4CC(F)(CO)C4)c23)C1 [Compound 39, 2-Fluoro-1-(3-(4-(3-fluoro-3-(hydroxymethyl)azetidin-1-yl)-1-(4-(trifluoromethoxy)phenyl)-1H-pyrazolo[3,4-b]pyridin-3-yl)azetidin-1-yl)prop-2-en-1-one]
0.048 µM | 0.016 µM | 0.066 µM | 0.013 µM | COC/C=C/C(=O)N1CC(c2nn(-c3ccc(OC(F)(F)F)cc3)c3nccc(CO)c23)C1 [Compound 40, (E)-1-(3-(4-(Hydroxymethyl)-1-(4-(trifluoromethoxy)phenyl)-1H-pyrazolo[3,4-b]pyridin-3-yl)azetidin-1-yl)-4-methoxybut-2-en-1-one]
0.2 µM | 0.02 µM | 0.027 µM | 0.025 µM | C=C(F)C(=O)N1CC(c2nn(-c3ccc(OC(F)(F)F)cc3)c3nccc(NC(=O)CO)c23)C1 [Compound 42, N-(3-(1-(2-Fluoroacryloyl)azetidin-3-yl)-1-(4-(trifluoromethoxy)phenyl)-1H-pyrazolo[3,4-b]pyridin-4-yl)-2-hydroxyacetamide]
0.054 µM | 0.013 µM | 0.78 µM | 0.0046 µM | C=CC(=O)NCc1nn(-c2ccc(OC(F)(F)F)cc2)c2nccc(N3CC(CO)C3)c12 [Compound 43, N-((4-(3-(hydroxymethyl)azetidin-1-yl)-1-(4-(trifluoromethoxy)phenyl)-1H-pyrazolo[3,4-b]pyridin-3-yl)methyl)acrylamide]
1.5 µM | 0.25 µM | 50 µM | 0.34 µM | C=C(F)C(=O)N1CC(c2nn(-c3ccc(OC(F)(F)F)cc3)c3nccc(-c4cnn(CCN(C)C)c4)c23)C1 [Compound 45, 1-(3-(4-(1-(2-(Dimethylamino)ethyl)-1H-pyrazol-4-yl)-1-(4-(trifluoromethoxy)phenyl)-1H-pyrazolo[3,4-b]pyridin-3-yl)azetidin-1-yl)-2-fluoroprop-2-en-1-one]
0.15 µM | 0.05 µM | 2.1 µM | 0.013 µM | C=CC(=O)NCc1nn(-c2ccc(OC(F)(F)F)cc2)c2nccc(N3CC[C@H](O)C3)c12 [Compound 46, (S)-N-((4-(3-hydroxypyrrolidin-1-yl)-1-(4-(trifluoromethoxy)phenyl)-1H-pyrazolo[3,4-b]pyridin-3-yl)methyl)acrylamide]
0.1 µM | 0.033 µM | 2 µM | 0.011 µM | C=CC(=O)NCc1nn(-c2ccc(OC(F)(F)F)cc2)c2nccc(N3CC[C@@H](O)C3)c12 [Compound 47, (R)-N-((4-(3-hydroxypyrrolidin-1-yl)-1-(4-(trifluoromethoxy)phenyl)-1H-pyrazolo[3,4-b]pyridin-3-yl)methyl)acrylamide]
0.0023 µM | 0.0035 µM | 0.0048 µM | 0.00088 µM | C#Cc1ccnc2c1c(C1CN(C(=O)C=C)C1)nn2-c1ccc(OC(F)(F)F)cc1 [Compound 48, 1-(3-(4-Ethynyl-1-(4-(trifluoromethoxy)phenyl)-1H-pyrazolo[3,4-b]pyridin-3-yl)azetidin-1-yl)prop-2-en-1-one]
0.075 µM | 0.024 µM | 0.2 µM | 0.0095 µM | O=C(/C=C/CO)N1CC(c2nn(-c3ccc(OC(F)(F)F)cc3)c3nccc(-c4cn[nH]c4)c23)C1 [Compound 50, (E)-1-(3-(4-(1H-Pyrazol-4-yl)-1-(4-(trifluoromethoxy)phenyl)-1H-pyrazolo[3,4-b]pyridin-3-yl)azetidin-1-yl)-4-hydroxybut-2-en-1-one]
0.12 µM | 0.032 µM | 0.51 µM | 0.015 µM | C=CC(=O)NCc1nn(-c2ccc(OC(F)(F)F)cc2)c2nccc(-c3c[nH]nn3)c12 [Compound 51, N-((4-(1H-1,2,3-Triazol-4-yl)-1-(4-(trifluoromethoxy)phenyl)-1H-pyrazolo[3,4-b]pyridin-3-yl)methyl)acrylamide]

Compound | IC50 (TEAD2) | IC50 (TEAD1) | IC50 (TEAD3) | IC50 (TEAD4)
C=CC(=O)NCc1nn(-c2ccc(OC(F)(F)F)cc2)c2nccc(O[C@H]3C[C@@H](O)C3)c12 [Compound 34, N-((4-(cis-3-Hydroxycyclobutoxy)-1-(4-(trifluoromethoxy)phenyl)-1H-pyrazolo[3,4-b]pyridin-3-yl)methyl)acrylamide] | 0.34 µM | 0.023 µM | 50 µM | 0.039 µM
